What was measured:
[1] = molecular target: PON1 (Homo sapiens, UniProt P27169); conditions: Cohen et al., 2014; cited from earlier work
[2] = tested on: rePON1; conditions: 25° C.; Cohen et al., 2014; cited from earlier work
[3] = tested on: J774A.1 macrophages; conditions: as previously shown; cited from earlier work
[4] = tested on: Human umbilical vein endothelial cells (HUVECs); assay: HDL-induced endothelial NO release, DAN assay; format: cell-based; conditions: HDL 50 μg/ml preincubated 3 h with 10, 20, 50 μg/ml; HUVECs 2 h
Description: HUVECs were stimulated for 2 h with HDL (50 μg/ml) preincubated with DMSO, lyso-DGTS and S1P at final concentrations of 10, 20, and 50 μg/ml for 3 h. Media were then collected and treated with nitrate reductase followed by analysis using the DAN assay. Data are expressed as NO concentration (μM) released by the cells. Each experiment was repeated separately at least three times. *p<0.05, ***p<0.0001 related to the control (HDL without lyso-DGTS or S1P). Statistics were analyzed using one-way annova Graphpad prism 5 software.
Human umbilical vein endothelial cells (HUVECs) were incubated for 2 hours with HDL preincubated with different concentration of lyso-DGTS or S1P for 3 hours, and NO production determined using 2,3-diaminonapthalene (DAN) assay.

Sequence of PON1 (P27169 whole entry, species assumed): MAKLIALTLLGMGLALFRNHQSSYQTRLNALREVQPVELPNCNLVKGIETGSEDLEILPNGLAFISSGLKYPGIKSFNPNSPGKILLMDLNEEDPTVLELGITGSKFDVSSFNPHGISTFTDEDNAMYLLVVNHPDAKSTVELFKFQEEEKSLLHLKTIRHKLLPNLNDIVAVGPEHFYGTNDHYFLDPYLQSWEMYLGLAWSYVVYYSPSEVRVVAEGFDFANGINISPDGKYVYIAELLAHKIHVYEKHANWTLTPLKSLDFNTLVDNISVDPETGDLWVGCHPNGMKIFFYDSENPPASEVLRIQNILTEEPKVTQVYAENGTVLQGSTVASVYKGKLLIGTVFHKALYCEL

| Molecule | decrease of the ratio between HDL-PON1 and free-PON1 [1] [%] | Binding constant Ka to PON1 [2] [M⁻¹] | effect on PON1 uptake by macrophage cells [3] | effect on HDL ability to induce endothelial NO release [4] |
| --- | --- | --- | --- | --- |
| PC 16:0 18:2 | 50 | 1680 | enhance PON1 uptake by macrophage cells | – |
| CCCCCCCCCCCCC/C=C/[C@@H](O)[C@@H](N)COP(=O)(O)O [S1P, Sphingosine 1-Phosphate, reference compound] | – | – | – | significantly increased the HDL ability to induce endothelial NO release at a dose dependent manner |
